Experimental findings from patent US10913727B2, “Modulators of the integrated stress pathway” (Calico Life Sciences LLC, priority 2016, dated 2021) are described below.

What is called EC50 is the concentration at which the effect is half-maximal.

A value given as a limit tells only on which side of the number the result lay.

The test system of the assay is HEK293T cells carrying the ATF4 luciferase reporter. The assay is described as follows: ATF4-Luc assay, in vitro model of Vanishing Cell White Matter Disease (VWMD). The following applies: Homo sapiens, HEK-293T, 1 μg/mL tunicamycin, 7 hours, One Glo luminescence. In kind it is cell-based. In outline:
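Compound at 200 nM and tunicamycin at 1 μg/mL were given together for 7 h to HEK293T cells stably transduced with an ATF4 5′-UTR-driven firefly luciferase reporter. Read-out by luminescence, reported as EC50.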
As to `O=C(COc1ccc(Cl)c(F)c1)NC12CC(NC(=O)c3cnc(C(F)F)s3)(C1)C2` [Compound 443, N-{3-[2-(4-chloro-3-fluorophenoxy)acetamido]bicyclo[1.1.1]pentan-1-yl}-2-(difluoromethyl)-1,3-thiazole-5-carboxamide], the EC50 is < 50 nM.
In the case of `Cc1cc(C(=O)NC23CCC(NC(=O)COc4ccc(Cl)c(F)c4)(CC2)CC3)on1` [Compound 444, N-{4-[2-(4-chloro-3-fluorophenoxy)acetamido]bicyclo[2.2.2]octan-1-yl}-3-methyl-1,2-oxazole-5-carboxamide] it was > 2000 nM; in that of `O=C(COc1ccc(Cl)c(F)c1)NC12CC(Nc3nccn4cnnc34)(C1)C2` [Compound 445, 2-(4-chloro-3-fluorophenoxy)-N-{3-[([1,2,4]triazolo[4,3-a]pyrazin-8-yl)amino]bicyclo[1.1.1]pentan-1-yl}acetamide], > 2000 nM.
In the case of `Cc1nc(C)c(C(=O)NC23CCC(NC(=O)COc4ccc(Cl)c(F)c4)(CC2)C(O)C3)s1` (stereo not shown) [Compound 446, N-{4-[2-(4-chloro-3-fluorophenoxy)acetamido]-3-hydroxybicyclo[2.2.2]octan-1-yl}-2,4-dimethyl-1,3-thiazole-5-carboxamide] it was 250 to 1000 nM; in that of `Cc1cc(C(=O)NC23CCC(NC(=O)COc4ccc(Cl)c(F)c4)(CC2)C(O)C3)n(C)n1` (stereo not shown) [Compound 447, N-{4-[2-(4-chloro-3-fluorophenoxy)acetamido]-3-hydroxybicyclo[2.2.2]octan-1-yl}-1,3-dimethyl-1H-pyrazole-5-carboxamide], 50 to 250 nM.
Take `O=C(COc1ccc(Cl)c(F)c1)NC12CC(Nc3nccn4ncnc34)(C1)C2` [Compound 448, 2-(4-chloro-3-fluorophenoxy)-N-{3-[([1,2,4]triazolo[1,5-a]pyrazin-8-yl)amino]bicyclo[1.1.1]pentan-1-yl}acetamide]: the EC50 is 1000 to 2000 nM.
To `Cc1csc(C(=O)NC23CC(NC(=O)COc4ccc(Cl)c(F)c4)(C2)C3)n1` [Compound 450, N-{3-[2-(4-chloro-3-fluorophenoxy)acetamido]bicyclo[1.1.1]pentan-1-yl}-4-methyl-1,3-thiazole-2-carboxamide] belongs 50 to 250 nM; to `O=C(COc1ccc(Cl)c(F)c1)NC12CCC(NC(=O)c3ccc(OC(F)(F)F)nc3)(CC1)CC2O` (stereo not shown) [Compound 451, N-{4-[2-(4-chloro-3-fluorophenoxy)acetamido]-3-hydroxybicyclo[2.2.2]octan-1-yl}-6-(trifluoromethoxy)pyridine-3-carboxamide], < 50 nM; to `Cc1ccc(C(=O)NC23CC(NC(=O)COc4ccc(Cl)c(F)c4)(C2)C3)cc1CO` [Compound 452, N-{3-[2-(4-chloro-3-fluorophenoxy)acetamido]bicyclo[1.1.1]pentan-1-yl}-3-(hydroxymethyl)-4-methylbenzamide], 250 to 1000 nM.
To `O=C(COc1ccc(Cl)c(F)c1)NC12CC(NC(=O)c3cncc(CO)c3)(C1)C2` [Compound 453, N-{3-[2-(4-chloro-3-fluorophenoxy)acetamido]bicyclo[1.1.1]pentan-1-yl}-5-(hydroxymethyl)pyridine-3-carboxamide] belongs 1000 to 2000 nM; to `O=C(COc1ccc(C(F)(F)F)nc1)NC12CC(NC(=O)c3ccc(OC(F)(F)F)cn3)(C1)C2` [Compound 454, 5-(trifluoromethoxy)-N-[3-(2-{[6-(trifluoromethyl)pyridin-3-yl]oxy}acetamido)bicyclo[1.1.1]pentan-1-yl]pyridine-2-carboxamide], 50 to 250 nM.
In the case of `O=C(COc1ccc(C(F)(F)F)nc1)NC12CC(NC(=O)c3cnc(C(F)F)cn3)(C1)C2` [Compound 455, 5-(difluoromethyl)-N-[3-(2-{[6-(trifluoromethyl)pyridin-3-yl]oxy}acetamido)bicyclo[1.1.1]pentan-1-yl]pyrazine-2-carboxamide] it was > 2000 nM; in that of `O=C(COc1ccc(Cl)c(Cl)c1)NC12CC(NC(=O)c3cccnc3)(C1)C2` [Compound 456, N-{3-[2-(3,4-dichlorophenoxy)acetamido]bicyclo[1.1.1]pentan-1-yl}pyridine-3-carboxamide], 50 to 250 nM; in that of `O=C(COc1ccc2c(c1)OC(F)(F)O2)NC12CC(NC(=O)c3cccnc3)(C1)C2` [Compound 457, N-(3-{2-[(2,2-difluoro-2H-1,3-benzodioxol-5-yl)oxy]acetamido}bicyclo[1.1.1]pentan-1-yl)pyridine-3-carboxamide], 250 to 1000 nM.
On to `O=C(COc1ccc2c(c1)OC(F)(F)O2)NC12CC(NC(=O)c3ccc(OC(F)F)nc3)(C1)C2` [Compound 458, N-(3-{2-[(2,2-difluoro-2H-1,3-benzodioxol-5-yl)oxy]acetamido}bicyclo[1.1.1]pentan-1-yl)-6-(difluoromethoxy)pyridine-3-carboxamide], for which the EC50 was 50 to 250 nM.
To `Cc1cc(C(=O)NC23CC(NC(=O)COc4ccc(Cl)c(F)c4)(C2)C3)n(CC(C)(C)O)n1` [Compound 459, N-{3-[2-(4-chloro-3-fluorophenoxy)acetamido]bicyclo[1.1.1]pentan-1-yl}-1-(2-hydroxy-2-methylpropyl)-3-methyl-1H-pyrazole-5-carboxamide] belongs > 2000 nM.
Take `Cc1cc(C(=O)NC23CC(NC(=O)COc4ccc(Cl)c(Cl)c4)(C2)C3)n(CC(C)(C)O)n1` [Compound 460, N-{3-[2-(3,4-dichlorophenoxy)acetamido]bicyclo[1.1.1]pentan-1-yl}-1-(2-hydroxy-2-methylpropyl)-3-methyl-1H-pyrazole-5-carboxamide]: the EC50 is > 2000 nM.
To `Cc1cc(C(=O)NC23CCC(NC(=O)COc4ccc(F)c(F)c4)(CC2)C(=O)C3)on1` [Compound 461, N-{4-[2-(3,4-difluorophenoxy)acetamido]-3-oxobicyclo[2.2.2]octan-1-yl}-3-methyl-1,2-oxazole-5-carboxamide] belongs 1000 to 2000 nM.
Consider `Cc1cc(C(=O)NC23CCC(NC(=O)COc4ccc(F)c(F)c4)(CC2)C(O)C3)on1` (stereo not shown) [Compound 462, N-{4-[2-(3,4-difluorophenoxy)acetamido]-3-hydroxybicyclo[2.2.2]octan-1-yl}-3-methyl-1,2-oxazole-5-carboxamide], for which the EC50 was in the range of 250 to 1000 nM.
In the case of `Cc1cn2ccnc(NC34CC(NC(=O)COc5ccc(Cl)c(F)c5)(C3)C4)c2n1` [Compound 463, 2-(4-chloro-3-fluorophenoxy)-N-{3-[(2-methylimidazo[1,2-a]pyrazin-8-yl)amino]bicyclo[1.1.1]pentan-1-yl}acetamide] it was 50 to 250 nM; in that of `O=C(COc1ccc(Cl)c(F)c1)NC12CCC(Nc3nccn4cnnc34)(CC1)[C@H](O)C2` [Compound 464, 2-(4-chloro-3-fluorophenoxy)-N-{(3R)-3-hydroxy-4-[([1,2,4]triazolo[4,3-a]pyrazin-8-yl)amino]bicyclo[2.2.2]octan-1-yl}acetamide], > 2000 nM; in that of `Cc1nnc2c(NC34CC(NC(=O)COc5ccc(Cl)c(F)c5)(C3)C4)nccn12` [Compound 465, 2-(4-chloro-3-fluorophenoxy)-N-{3-[(3-methyl[1,2,4]triazolo[4,3-a]pyrazin-8-yl)amino]bicyclo[1.1.1]pentan-1-yl}acetamide], > 2000 nM.
